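In this assay, cells in 96-well plates receive the compound at five concentrations for 48 hours. Endpoints are linearly interpolated between the surrounding concentrations. GI50 marks 50% less growth. Definition used: TGI = concentration required for complete inhibition of growth.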
Columns and labels:
Assay in all cases: NCI-60 cell line screen, 48 h
KM12 colon = system: KM12 colon
SK-OV-3 ovarian = system: SK-OV-3 ovarian
UACC-62 melanoma = system: UACC-62 melanoma
A549 NSCLC = system: A549 NSCLC
MDA-MB-468 breast = system: MDA-MB-468 breast
SF-539 CNS = system: SF-539 CNS
SF-268 CNS = system: SF-268 CNS
HCT-15 colon = system: HCT-15 colon
HS 578T breast = system: HS 578T breast
OVCAR-3 ovarian = system: OVCAR-3 ovarian
786-0 renal = system: 786-0 renal
SF-295 CNS = system: SF-295 CNS
HCC-2998 colon = system: HCC-2998 colon
MOLT-4 leukemia = system: MOLT-4 leukemia
COLO 205 colon = system: COLO 205 colon
HOP-62 NSCLC = system: HOP-62 NSCLC
TK-10 renal = system: TK-10 renal
T-47D breast = system: T-47D breast
CCRF-CEM leukemia = system: CCRF-CEM leukemia
SR leukemia = system: SR leukemia
DU-145 prostate = system: DU-145 prostate
EKVX NSCLC = system: EKVX NSCLC
A498 renal = system: A498 renal
MDA-MB-231 breast = system: MDA-MB-231 breast
IGROV1 ovarian = system: IGROV1 ovarian
M14 melanoma = system: M14 melanoma
BT-549 breast = system: BT-549 breast
SK-MEL-28 melanoma = system: SK-MEL-28 melanoma

COc1ccc2nc(Cl)c(-c3cc(-c4ccccc4)nc(N)n3)cc2c1
GI50 (KM12 colon): 3.38 µM | TGI (KM12 colon): 12.6 µM | GI50 (SK-OV-3 ovarian): 39.7 µM | TGI (SK-OV-3 ovarian): > 100 µM | GI50 (UACC-62 melanoma): 11 µM | TGI (UACC-62 melanoma): 24 µM | GI50 (A549 NSCLC): 21.5 µM | TGI (A549 NSCLC): > 100 µM | GI50 (MDA-MB-468 breast): 4 µM | TGI (MDA-MB-468 breast): 16.5 µM | GI50 (SF-539 CNS): 1.89 µM | TGI (SF-539 CNS): 3.92 µM | GI50 (SF-268 CNS): 28.1 µM | TGI (SF-268 CNS): > 100 µM | GI50 (HCT-15 colon): 2.67 µM | TGI (HCT-15 colon): 8.1 µM | GI50 (HS 578T breast): 20.8 µM | TGI (HS 578T breast): > 100 µM | GI50 (OVCAR-3 ovarian): 3.71 µM | TGI (OVCAR-3 ovarian): 14.5 µM | GI50 (786-0 renal): 1.45 µM | TGI (786-0 renal): 4.36 µM | GI50 (SF-295 CNS): 11.4 µM | TGI (SF-295 CNS): 36.1 µM | GI50 (HCC-2998 colon): 10.6 µM | TGI (HCC-2998 colon): 22.5 µM | GI50 (MOLT-4 leukemia): 1.74 µM | TGI (MOLT-4 leukemia): > 100 µM | GI50 (COLO 205 colon): 10.9 µM | TGI (COLO 205 colon): 25.8 µM | GI50 (HOP-62 NSCLC): 7.47 µM | TGI (HOP-62 NSCLC): 31.1 µM | GI50 (TK-10 renal): 22.1 µM | TGI (TK-10 renal): 90.2 µM | GI50 (T-47D breast): 7.94 µM | TGI (T-47D breast): > 100 µM | GI50 (CCRF-CEM leukemia): 2.58 µM | TGI (CCRF-CEM leukemia): > 100 µM | GI50 (SR leukemia): 0.605 µM | TGI (SR leukemia): > 100 µM | GI50 (DU-145 prostate): 4.03 µM | TGI (DU-145 prostate): > 100 µM | GI50 (EKVX NSCLC): 16.9 µM | TGI (EKVX NSCLC): 72.2 µM | GI50 (A498 renal): 25.9 µM | TGI (A498 renal): > 100 µM | GI50 (MDA-MB-231 breast): 6.97 µM | TGI (MDA-MB-231 breast): 38.8 µM | GI50 (IGROV1 ovarian): 8.04 µM | TGI (IGROV1 ovarian): 23.7 µM | GI50 (M14 melanoma): 4.33 µM | TGI (M14 melanoma): 25.9 µM | GI50 (BT-549 breast): 1.54 µM | TGI (BT-549 breast): 3.32 µM | GI50 (SK-MEL-28 melanoma): 14.6 µM | TGI (SK-MEL-28 melanoma): 33.8 µM
